Experimental findings from publication PMC9030254, “Target Hopping from Protein Kinases to PXR: Identification of Small-Molecule Protein Kinase Inhibitors as Selective Modulators of Pregnane X Receptor from TüKIC Library” (Cells, 2022) are described below.

What all share (test): Kinase profiling
Holding throughout (type): biochemical

One assay deals with T1, ABL2 (Homo sapiens, UniProt P42684).
T1 construct: purchased ProQinase (Freiburg, Germany)
Here is the method: (§1) The analysis was performed by ProQinase (Freiburg, Germany).

Another assay has as its target T2, CDK20/CycT1 (Homo sapiens, UniProt Q8IZL9).
T2 construct: purchased ProQinase (Freiburg, Germany)
Here is the method: as §1

Another assay deals with T3, AMPKalpha1 (Homo sapiens, UniProt Q13131).
T3 construct: purchased ProQinase (Freiburg, Germany)
T3 sequence (Q13131 10-559 limits assumed): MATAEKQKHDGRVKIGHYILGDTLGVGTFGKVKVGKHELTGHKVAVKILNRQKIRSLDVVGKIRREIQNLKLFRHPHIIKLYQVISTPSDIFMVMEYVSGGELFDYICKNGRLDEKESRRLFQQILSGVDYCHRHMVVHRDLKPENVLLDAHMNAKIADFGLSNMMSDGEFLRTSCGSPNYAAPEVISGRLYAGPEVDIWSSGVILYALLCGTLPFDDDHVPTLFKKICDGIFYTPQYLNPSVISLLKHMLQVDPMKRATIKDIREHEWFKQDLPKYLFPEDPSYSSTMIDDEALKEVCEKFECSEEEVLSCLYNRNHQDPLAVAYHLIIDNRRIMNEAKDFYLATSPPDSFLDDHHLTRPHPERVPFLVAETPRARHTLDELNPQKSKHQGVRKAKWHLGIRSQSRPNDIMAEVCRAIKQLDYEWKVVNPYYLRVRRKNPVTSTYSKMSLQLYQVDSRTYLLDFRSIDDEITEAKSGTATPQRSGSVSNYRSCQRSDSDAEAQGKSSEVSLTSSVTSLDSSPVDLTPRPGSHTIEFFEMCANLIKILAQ
The protocol:
as §1

For the next assay, the target named is T4, FGFR3 (Homo sapiens, UniProt P22607).
T4 construct: purchased ProQinase (Freiburg, Germany)
T4 sequence (P22607 23-806): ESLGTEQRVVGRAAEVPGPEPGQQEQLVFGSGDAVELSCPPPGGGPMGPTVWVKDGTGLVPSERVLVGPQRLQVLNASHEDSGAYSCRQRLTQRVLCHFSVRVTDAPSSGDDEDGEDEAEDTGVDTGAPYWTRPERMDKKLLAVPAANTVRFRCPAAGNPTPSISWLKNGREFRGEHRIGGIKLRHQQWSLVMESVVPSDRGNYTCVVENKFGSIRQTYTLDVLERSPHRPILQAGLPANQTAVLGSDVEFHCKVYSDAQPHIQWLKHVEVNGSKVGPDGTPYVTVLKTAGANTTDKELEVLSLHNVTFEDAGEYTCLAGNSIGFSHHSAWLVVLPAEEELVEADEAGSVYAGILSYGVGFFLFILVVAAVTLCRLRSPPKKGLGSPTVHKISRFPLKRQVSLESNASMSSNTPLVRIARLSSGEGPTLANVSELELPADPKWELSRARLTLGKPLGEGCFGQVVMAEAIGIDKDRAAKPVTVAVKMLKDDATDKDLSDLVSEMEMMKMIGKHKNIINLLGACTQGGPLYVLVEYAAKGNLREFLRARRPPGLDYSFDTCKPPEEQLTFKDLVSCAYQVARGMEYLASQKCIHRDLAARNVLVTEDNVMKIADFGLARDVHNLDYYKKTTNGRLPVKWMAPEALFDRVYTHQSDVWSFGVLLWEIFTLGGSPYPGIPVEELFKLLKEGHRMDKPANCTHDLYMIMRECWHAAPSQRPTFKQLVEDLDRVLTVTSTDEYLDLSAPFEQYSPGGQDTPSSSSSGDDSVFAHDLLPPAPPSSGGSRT
The protocol:
as §1

In another assay the target is T5, CDK1/CycA2 (Homo sapiens, UniProt P06493).
T5 construct: purchased ProQinase (Freiburg, Germany)
The protocol: as §1

The target of the next assay is T6, GRK3 (Homo sapiens, UniProt P35626).
T6 construct: purchased ProQinase (Freiburg, Germany)
T6 sequence (P35626 1-688): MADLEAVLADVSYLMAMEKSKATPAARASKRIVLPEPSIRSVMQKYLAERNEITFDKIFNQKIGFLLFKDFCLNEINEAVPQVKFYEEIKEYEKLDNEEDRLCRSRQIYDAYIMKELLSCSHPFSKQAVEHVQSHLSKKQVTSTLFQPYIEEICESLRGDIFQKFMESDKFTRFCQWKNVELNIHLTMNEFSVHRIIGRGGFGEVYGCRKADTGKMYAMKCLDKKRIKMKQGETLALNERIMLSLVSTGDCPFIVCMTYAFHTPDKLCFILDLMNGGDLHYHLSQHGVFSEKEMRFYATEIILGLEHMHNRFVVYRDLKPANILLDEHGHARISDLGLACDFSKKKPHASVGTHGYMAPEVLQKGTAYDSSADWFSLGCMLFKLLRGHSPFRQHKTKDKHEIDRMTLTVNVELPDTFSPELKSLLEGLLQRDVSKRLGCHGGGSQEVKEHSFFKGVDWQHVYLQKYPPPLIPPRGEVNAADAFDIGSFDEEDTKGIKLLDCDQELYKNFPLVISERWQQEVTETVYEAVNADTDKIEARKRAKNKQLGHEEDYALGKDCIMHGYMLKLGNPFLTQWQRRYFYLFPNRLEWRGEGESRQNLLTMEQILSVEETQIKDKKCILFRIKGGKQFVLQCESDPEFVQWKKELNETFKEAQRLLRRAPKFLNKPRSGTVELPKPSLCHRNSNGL
The protocol: as §1

For another assay, the target named is T7, MAP4K4 (Homo sapiens, UniProt O95819).
T7 construct: purchased ProQinase (Freiburg, Germany)
T7 sequence (O95819 whole entry): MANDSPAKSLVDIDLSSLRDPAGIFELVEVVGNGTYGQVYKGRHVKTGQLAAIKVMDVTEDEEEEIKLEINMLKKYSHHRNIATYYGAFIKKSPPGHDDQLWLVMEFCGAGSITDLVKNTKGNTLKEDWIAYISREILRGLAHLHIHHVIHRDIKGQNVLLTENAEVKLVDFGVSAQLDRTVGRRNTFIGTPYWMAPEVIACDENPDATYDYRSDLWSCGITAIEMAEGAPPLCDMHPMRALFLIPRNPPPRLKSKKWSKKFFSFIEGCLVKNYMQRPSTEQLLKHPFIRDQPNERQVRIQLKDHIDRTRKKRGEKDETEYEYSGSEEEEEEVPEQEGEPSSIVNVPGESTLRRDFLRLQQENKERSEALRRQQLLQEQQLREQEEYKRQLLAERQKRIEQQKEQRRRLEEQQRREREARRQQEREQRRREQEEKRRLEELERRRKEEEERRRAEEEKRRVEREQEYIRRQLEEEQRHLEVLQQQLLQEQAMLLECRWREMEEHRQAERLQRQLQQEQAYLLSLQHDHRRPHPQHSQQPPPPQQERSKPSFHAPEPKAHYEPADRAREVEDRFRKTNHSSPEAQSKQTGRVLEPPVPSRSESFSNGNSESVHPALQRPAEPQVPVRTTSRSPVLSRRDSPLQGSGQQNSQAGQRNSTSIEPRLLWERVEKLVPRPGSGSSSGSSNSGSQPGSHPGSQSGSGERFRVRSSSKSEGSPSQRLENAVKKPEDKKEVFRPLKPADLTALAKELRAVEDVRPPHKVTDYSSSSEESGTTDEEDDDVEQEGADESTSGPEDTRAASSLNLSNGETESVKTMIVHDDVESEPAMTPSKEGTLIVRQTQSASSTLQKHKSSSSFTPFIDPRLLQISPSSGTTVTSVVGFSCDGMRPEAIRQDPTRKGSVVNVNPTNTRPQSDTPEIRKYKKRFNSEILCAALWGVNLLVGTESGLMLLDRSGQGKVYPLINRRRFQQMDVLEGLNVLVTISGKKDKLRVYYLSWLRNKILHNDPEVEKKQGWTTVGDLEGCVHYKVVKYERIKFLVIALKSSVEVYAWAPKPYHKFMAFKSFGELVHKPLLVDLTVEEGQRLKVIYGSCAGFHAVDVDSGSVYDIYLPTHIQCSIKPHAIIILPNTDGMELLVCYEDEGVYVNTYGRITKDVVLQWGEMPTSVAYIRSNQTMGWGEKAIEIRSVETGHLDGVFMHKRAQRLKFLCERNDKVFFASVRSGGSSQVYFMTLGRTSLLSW
The protocol: as §1

In another assay the target is T8, EIF2AK2 (Homo sapiens, UniProt P19525).
T8 construct: purchased ProQinase (Freiburg, Germany)
Here is the method:
as §1

The next assay has as its target T9, BRSK1 (Homo sapiens, UniProt Q8TDC3).
T9 construct: purchased ProQinase (Freiburg, Germany)
T9 sequence (Q8TDC3 1-778): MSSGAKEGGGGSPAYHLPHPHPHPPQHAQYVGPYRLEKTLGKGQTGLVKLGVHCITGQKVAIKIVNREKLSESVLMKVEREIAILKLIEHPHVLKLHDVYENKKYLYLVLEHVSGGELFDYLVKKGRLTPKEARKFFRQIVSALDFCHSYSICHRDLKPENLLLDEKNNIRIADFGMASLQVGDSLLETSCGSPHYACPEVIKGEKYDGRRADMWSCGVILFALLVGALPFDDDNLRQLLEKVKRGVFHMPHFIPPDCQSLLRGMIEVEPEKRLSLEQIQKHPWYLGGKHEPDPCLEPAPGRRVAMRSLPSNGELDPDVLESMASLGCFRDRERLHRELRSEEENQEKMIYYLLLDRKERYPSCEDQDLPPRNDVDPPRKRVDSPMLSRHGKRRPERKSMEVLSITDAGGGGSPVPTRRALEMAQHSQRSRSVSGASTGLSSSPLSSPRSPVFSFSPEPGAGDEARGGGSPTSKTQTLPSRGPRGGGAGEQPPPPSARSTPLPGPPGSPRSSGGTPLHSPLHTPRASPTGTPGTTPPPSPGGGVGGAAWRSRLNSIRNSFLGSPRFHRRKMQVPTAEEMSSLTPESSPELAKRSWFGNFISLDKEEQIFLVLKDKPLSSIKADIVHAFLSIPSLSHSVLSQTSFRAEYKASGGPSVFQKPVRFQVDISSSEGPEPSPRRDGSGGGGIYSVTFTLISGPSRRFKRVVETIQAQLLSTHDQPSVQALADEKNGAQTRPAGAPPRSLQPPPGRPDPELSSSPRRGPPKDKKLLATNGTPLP
Here is the method: as §1

T2 sequence (Q8IZL9 whole entry): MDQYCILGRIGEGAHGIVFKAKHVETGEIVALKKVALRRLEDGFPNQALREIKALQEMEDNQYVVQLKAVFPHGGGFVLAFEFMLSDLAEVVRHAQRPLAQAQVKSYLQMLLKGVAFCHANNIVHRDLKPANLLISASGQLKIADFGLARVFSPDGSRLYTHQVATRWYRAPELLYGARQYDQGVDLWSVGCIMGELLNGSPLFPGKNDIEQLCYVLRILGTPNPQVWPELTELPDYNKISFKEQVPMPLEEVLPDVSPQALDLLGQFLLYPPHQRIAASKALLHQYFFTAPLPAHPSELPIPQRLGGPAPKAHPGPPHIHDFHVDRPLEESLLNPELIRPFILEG
T2 sequence (O60563 whole entry partner): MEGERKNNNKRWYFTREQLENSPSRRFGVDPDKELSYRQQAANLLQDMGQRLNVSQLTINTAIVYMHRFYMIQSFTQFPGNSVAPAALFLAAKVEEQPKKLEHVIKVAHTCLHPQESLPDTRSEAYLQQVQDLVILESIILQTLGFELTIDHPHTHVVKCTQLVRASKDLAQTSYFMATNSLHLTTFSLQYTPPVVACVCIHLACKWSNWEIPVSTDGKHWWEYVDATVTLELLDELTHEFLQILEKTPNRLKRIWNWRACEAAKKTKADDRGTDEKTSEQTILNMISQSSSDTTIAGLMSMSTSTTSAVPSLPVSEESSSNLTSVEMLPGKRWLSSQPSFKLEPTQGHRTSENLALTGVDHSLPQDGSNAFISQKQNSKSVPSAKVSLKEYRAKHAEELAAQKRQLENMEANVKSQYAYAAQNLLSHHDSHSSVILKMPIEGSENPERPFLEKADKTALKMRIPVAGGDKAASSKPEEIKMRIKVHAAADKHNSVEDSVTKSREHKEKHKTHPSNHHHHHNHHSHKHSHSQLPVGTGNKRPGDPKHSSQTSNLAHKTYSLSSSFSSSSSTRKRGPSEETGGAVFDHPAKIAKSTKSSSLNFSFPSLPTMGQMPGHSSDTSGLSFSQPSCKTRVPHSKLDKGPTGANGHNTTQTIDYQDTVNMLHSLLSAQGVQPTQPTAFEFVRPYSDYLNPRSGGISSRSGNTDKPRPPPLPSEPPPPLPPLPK
T1 sequence (P42684 whole entry): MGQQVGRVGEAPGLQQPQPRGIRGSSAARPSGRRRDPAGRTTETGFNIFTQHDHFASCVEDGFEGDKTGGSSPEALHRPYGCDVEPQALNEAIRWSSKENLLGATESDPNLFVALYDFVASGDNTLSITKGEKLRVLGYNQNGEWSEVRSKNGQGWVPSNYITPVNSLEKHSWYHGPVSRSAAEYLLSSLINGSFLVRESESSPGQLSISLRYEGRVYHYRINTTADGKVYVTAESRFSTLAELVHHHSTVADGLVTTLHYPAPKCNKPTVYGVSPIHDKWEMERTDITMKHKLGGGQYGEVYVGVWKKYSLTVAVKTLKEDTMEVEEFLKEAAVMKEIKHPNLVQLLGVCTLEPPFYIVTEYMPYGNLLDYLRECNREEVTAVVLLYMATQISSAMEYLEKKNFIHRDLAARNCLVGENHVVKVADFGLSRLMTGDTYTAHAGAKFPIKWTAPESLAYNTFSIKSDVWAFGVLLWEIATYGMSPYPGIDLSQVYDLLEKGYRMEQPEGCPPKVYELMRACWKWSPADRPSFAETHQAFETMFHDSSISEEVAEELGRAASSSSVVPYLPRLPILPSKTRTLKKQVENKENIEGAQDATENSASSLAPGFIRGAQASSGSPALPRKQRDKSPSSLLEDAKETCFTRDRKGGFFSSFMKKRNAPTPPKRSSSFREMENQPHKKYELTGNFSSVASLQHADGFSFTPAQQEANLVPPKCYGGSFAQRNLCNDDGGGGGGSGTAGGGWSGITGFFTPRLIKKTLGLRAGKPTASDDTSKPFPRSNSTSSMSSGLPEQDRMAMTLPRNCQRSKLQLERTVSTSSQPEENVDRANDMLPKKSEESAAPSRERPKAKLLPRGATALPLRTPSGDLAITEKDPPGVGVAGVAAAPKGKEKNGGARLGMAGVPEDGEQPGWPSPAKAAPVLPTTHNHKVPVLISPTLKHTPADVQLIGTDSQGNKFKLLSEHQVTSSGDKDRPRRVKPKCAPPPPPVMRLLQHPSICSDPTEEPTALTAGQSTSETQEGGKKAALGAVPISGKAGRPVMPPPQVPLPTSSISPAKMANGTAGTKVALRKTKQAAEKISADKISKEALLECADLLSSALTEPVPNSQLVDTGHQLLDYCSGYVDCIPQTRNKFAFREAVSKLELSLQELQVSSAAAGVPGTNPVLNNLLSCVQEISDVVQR

For the molecule `O=C(Cc1ccccc1)Nc1ccc(F)c(Nc2ccc3c(c2)CCCCC3=O)c1` [Compound 100], the Residual activity at ABL2 (1.0E-05 M) is recorded as 93 % of control; at ABL2 (1.0E-06 M) it was 97 % of control; on CDK20/CycT1 (1.0E-05 M), 92 % of control; on CDK20/CycT1 (1.0E-06 M), 98 % of control; on AMPKalpha1 (1.0E-05 M), 101 % of control; at AMPKalpha1 (1.0E-06 M), 112 % of control. Further, the Residual activity is 76 % of control at FGFR3 (1.0E-05 M); 98 % of control on FGFR3 (1.0E-06 M); 83 % of control on CDK1/CycA2 (1.0E-05 M); 85 % of control on CDK1/CycA2 (1.0E-06 M); 144 % of control at GRK3 (1.0E-05 M); 118 % of control on GRK3 (1.0E-06 M). Further, the Residual activity was 95 % of control on MAP4K4 (1.0E-05 M); 89 % of control at MAP4K4 (1.0E-06 M); 113 % of control at EIF2AK2 (1.0E-05 M); 97 % of control on EIF2AK2 (1.0E-06 M); 91 % of control at BRSK1 (1.0E-05 M); 101 % of control at BRSK1 (1.0E-06 M).

On to `O=C(Nc1ccc(F)c(Nc2ccc3c(c2)CCCCC3=O)c1)c1cccc(F)c1` [Compound 109], for which the Residual activity at ABL2 (1.0E-05 M) is given as 92 % of control; on ABL2 (1.0E-06 M), 95 % of control; at CDK20/CycT1 (1.0E-05 M), 101 % of control; at CDK20/CycT1 (1.0E-06 M), 96 % of control; on AMPKalpha1 (1.0E-05 M), 98 % of control; on AMPKalpha1 (1.0E-06 M), 99 % of control. The Residual activity at FGFR3 (1.0E-05 M) was 95 % of control; on FGFR3 (1.0E-06 M), 110 % of control; at CDK1/CycA2 (1.0E-05 M), 88 % of control; at CDK1/CycA2 (1.0E-06 M), 86 % of control; on GRK3 (1.0E-05 M) it was 138 % of control; on GRK3 (1.0E-06 M) it was 122 % of control. Besides, the Residual activity at MAP4K4 (1.0E-05 M) is 85 % of control; on MAP4K4 (1.0E-06 M) it was 94 % of control; on EIF2AK2 (1.0E-05 M) it was 114 % of control; on EIF2AK2 (1.0E-06 M), 94 % of control; at BRSK1 (1.0E-05 M) it was 92 % of control; at BRSK1 (1.0E-06 M), 92 % of control.
